Experimental data: PMC6836573, “Mitochondria-targeting fluorescent molecules for high efficiency cancer growth inhibition and imaging” (Chemical Science, 2019)
Entries after “also recorded” stand apart in the source; their conditions may differ.

Assays:
[1] = tested on: bladder cancer T24 cell; assay: Cytotoxicity assay (direct cell counting), T24; format: cell-based; settings: for IC50: T24 cells, 3 days incubation, viable cells counted
Experimental: (§1) Cell culture, imaging, and cytotoxicity assay
(§2) RPMI-1640 medium. NIH/3T3 was cultured in DMEM medium. A549 was cultured in F-12K medium. T24 were cultured in McCoy's 5A medium. All culture mediums were supplemented with 10% fetal bovine serum. The cells were incubated at 37 °C in an atmosphere containing 5% CO 2. […]
(§3) Cytotoxicity assay. All test cell lines were incubated in 96-well plates overnight at a density of 3000 cells/well. The culture medium was replaced with 200 μL of culture medium, into which the testing compound was dispersed at various concentrations (1.95 - 500 μM). After incubating for 3 days, the viable cell numbers were checked and directly counted under microscopy (10X). A minimum of 1mm×1mm area was counted from each of at least three widely separated regions of cell culture. The cell proliferation rate was calculated by the following formula: cell proliferation rate (%) = (average cell number of sample wells / average cell number of control wells) ×100%.
(§4) The intact culture medium was evaluated as a control. […]

[2] = tested on: NSCLC H838 cell; assay: Cytotoxicity assay (direct cell counting), H838; format: cell-based; settings: H838 cells, 3 days incubation, viable cells counted
Experimental: as §1, §2, §3, §4
All animal experiments were performed in compliance with the Guidelines for the Care and Use of Research Animals as established by the Stanford University Animal Studies Committee. Female athymic nude mice (nu/nu) from 4−6 weeks old were obtained from Charles River Laboratories (Boston, MA, USA) and kept under sterile conditions. 5 × 106 human lung adenocarcinoma

[3] = Cytotoxicity assay (direct cell counting), NIH-3T3; format: cell-based; settings: mouse; NIH-3T3 normal cells; 3 days incubation, viable cells counted
Experimental: as §1, §2, §3, §4

[4] = Relative fluorescence quantum yield; format: physicochemical; settings: EtOH, relative to rhodamine 6G, excited at 425 nm
Experimental: Quantum yield. The fluorescence quantum yields of F16s were determined according to the […]
Where Φ is the quantum yield, F is the integrated area under the corrected emission spectrum, and A is the absorbance at the excitation wavelength; the subscripts x and s refer to F16s and the standard, respectively. Rhodamine 6G (ΦF = 95%) in ethanol was used as the standard. All F16s and Rhodamine 6G were dissolved in ethanol in 5 different concentrations with the absorbance lower than 0.1 at 425nm. The corresponding 5 different fluorescences of F16s and Rhodamine 6G were excited at 425 nm and the emission spectra from 450 nm to 650 nm were obtained for the following integrated area measurement. All data were analyzed using Origin Pro 9.0 software (OriginLab, Northampton, Massachusetts, USA) to get the F16s final quantum yield. […]

[5] = Photostability under continuous excitation; format: physicochemical; settings: water, 10 μM, continuously excited for 50 min
Experimental: bandpass filter (MF559-34, Thorlabs, Newton, New Jersey, USA) was used to excite Mitotracker
Red. All the dyes were dissolved in water at a 10 µM concentration in 700 µL micro quartz cuvettes (10 mm, Sigma-Aldrich, St. Louis, MO, USA). They were continuously excited for 50 mins.
During this period, the fluorescence intensity was measured every 5 mins at 525 nm (F16s, Rhodamine 6G, Mitotracker Green) or 600 nm (Mitotracker Red). Relative fluorescence intensity change was monitored over time. […]

[6] = Absorption and emission spectra in water; format: physicochemical; settings: 31 μM
[7] = parameters: method as in PMID 19072739, PMID 10656430, PMID 12154051; settings: study halted at Phase II; cited from earlier work
[8] = parameters: method as in earlier work; settings: in ethanol, used as the standard; ref 2 of the supplement; cited from earlier work

SMILES | IC50 ([1]; Homo sapiens, T-24, 72 h) | IC50 ([2]; Homo sapiens, NCI-H838, 72 h) | IC50 at 3 days [3] | Quantum Yield [4] | other results
Cn1cc(/C=C/c2cc[n+](C)cc2)c2cc(F)ccc21 [1-MeFF16] | 21.7 µM | 19.1 µM | 104 µM | 13.6% | Quantum Yield ([4]; listed as 1): around 12%; photostability ([5]; listed as 1): bleached quite easily; also recorded: dramatically decreased photostability
C[n+]1ccc(/C=C/c2c(Cl)[nH]c3ccccc23)cc1 [2-ClF16] | 54.7 µM | 25.7 µM | 13.8 µM | 8.6% | Quantum Yield ([4]; listed as 8): under 10%; photostability ([5]; listed as 8): bleached quite easily; also recorded: poor photostability
Cc1ccc2[nH]c(C)c(/C=C/c3cc[n+](C)cc3)c2c1 [2-Me-5-MeF16] | 68.8 µM | 17.3 µM | 161 µM | 18.1% | Quantum Yield ([4]; listed as 9): around 20%; photostability ([5]; listed as 9): bleached quite easily; also recorded: poor photostability; absorption peak [6]: about 450 nm
C[n+]1ccc(/C=C/c2c(-c3ccccc3)[nH]c3ccccc23)cc1 [2-PhF16] | 4.02 µM | 3.74 µM | 0.326 µM | 5.8% | Quantum Yield ([4]; listed as 5): under 10%; absorption peak [6]: about 450 nm
C[n+]1ccc(/C=C/c2c[nH]c3ccc(Br)cc23)cc1 [5-BrF16] | 1.84 µM | 1.2 µM | 11.6 µM | 49.1% | –
C[n+]1ccc(/C=C/c2c[nH]c3ccc(C#N)cc23)cc1 [5-CNF16] | 316 µM | 20 µM | – | 9.7% | Quantum Yield ([4]; listed as 6): under 10%
C[n+]1ccc(/C=C/c2c[nH]c3c(F)cc(I)cc23)cc1 [5-I-7-FF16] | 3.83 µM | 1.29 µM | 14.2 µM | 4.5% | Quantum Yield ([4]; listed as 10): under 10%
C[n+]1ccc(/C=C/c2c[nH]c3ccccc23)cc1 [F16, reference compound] | – | – | – | – | IC50 [1]: 18.8 µM; IC50 [2]: 46.6 µM
C[n+]1ccc(/C=C/c2c[nH]c3ccc(F)cc23)cc1 [FF16] | 6.26 µM | 3.63 µM | 75.1 µM | 18.5% | selectivity indices ([1]; 3T3 versus T24 and H838): > 10; Quantum Yield ([4]; listed as 7): around 20%
CCn1c(=O)/c(=C2\Sc3ccccc3N2C)s/c1=C\c1cccc[n+]1CC.[Cl-] [MKT-077] | – | – | – | – | anti-tumor effect in clinical trial [7]: limited anti-tumor effect; nephrotoxicity in clinical trial [7]: mild nephrotoxicity
C[n+]1ccc(/C=C/c2c[nH]c3ccc([N+](=O)[O-])cc23)cc1 [NO2F16] | 73.8 µM | 4.7 µM | 86 µM | 1.24% | Quantum Yield ([4]; listed as 11): under 10%
C[n+]1ccc(/C=C/c2c[nH]c3c2ccc2ccccc23)cc1 [PhF16] | 1.02 µM | 1.5 µM | 0.28 µM | 12.2% | Quantum Yield ([4]; listed as 2): around 12%
CC/N=c1\cc2oc3cc(NCC)c(C)cc3c(-c3ccccc3C(=O)OCC)c-2cc1C [rhodamine 6G] | – | – | – | – | Quantum Yield of the standard [8]: 95%
